Data: article PMC8725971, “Polycyclic nitrogen heterocycles as potential thymidine phosphorylase inhibitors: synthesis, biological evaluation, and molecular docking study” (Journal of Enzyme Inhibition and Medicinal Chemistry, 2021)
In brackets after ≈: the same amount, converted by molar mass. Counter-ions that a name gives are not always drawn.

Columns and labels:
[1] = molecular target: T1, E. coli TP (Escherichia coli, UniProt P07650); experiment: In vitro E. coli thymidine phosphorylase inhibition, spectrophotometric assay at 290 nm; assay type: biochemical; settings: for IC50: 300 µM thymidine, pH 7.4, 25 °C; for inhibition at 50 µM: compound at 50 µM, average of three measurements
T1 construct: purchased Sigma Aldrich T2807-1KU
T1 sequence (P07650 whole entry): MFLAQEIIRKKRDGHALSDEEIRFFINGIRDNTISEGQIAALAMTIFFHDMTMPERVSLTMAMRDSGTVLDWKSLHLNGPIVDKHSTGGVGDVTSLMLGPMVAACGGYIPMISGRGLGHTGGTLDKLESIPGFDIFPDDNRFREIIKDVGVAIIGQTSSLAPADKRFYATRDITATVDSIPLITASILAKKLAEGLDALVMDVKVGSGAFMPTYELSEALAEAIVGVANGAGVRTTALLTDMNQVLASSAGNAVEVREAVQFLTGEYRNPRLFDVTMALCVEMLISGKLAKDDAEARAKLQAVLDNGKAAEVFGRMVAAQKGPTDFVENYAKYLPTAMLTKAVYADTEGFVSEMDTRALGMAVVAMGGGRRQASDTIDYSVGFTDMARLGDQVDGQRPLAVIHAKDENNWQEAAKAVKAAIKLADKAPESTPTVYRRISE
Procedure: The adopted protocol is a modification of the original method developed by Khan[51]. TP activity and inhibition assays were based on the phosphorolysis of thymidine to thymine, this conversion results in a significant spectrophotometric decrease. At 290 nm and pH 7.4, thymidine has a higher extinction coefficient than thymine (Δε = −480 M^−1 cm^−1). The absorbance at 290 nm was measured every 2 min for 30 min in 96-well plates at 25 °C.
Thymidine was dissolved in buffer (3 mM). […] All experiments were conducted in triplicate.
The method reported by Khan et al.[51] has been adapted to a screening in 96-well plates (200 µL well, UV-Star® 96-well microplate, Greiner). Each well contained 160 µL of 50 mM KH2PO4 buffer (pH 7.4), 0.006 U of E. coli TP (T2807-1KU, Sigma Aldrich), and 20 µL of the tested compound solution. […] The decrease in absorbance due to conversion of thymidine to thymine was followed during 30 min (PowerWave HT Microplate Reader, Biotek) at 25 °C, with one measure every 2 min and a 30 s shaking before each measure.

[2] = physchem; settings: aqueous buffer, kinetic from dmso stock
[3] = Solubility in the incubation medium; settings: for Solubility (in words): incubation medium; for solubility: aqueous buffer, kinetic from dmso stock
[4] = molecular target: T1, E. coli TP; experiment: Phosphate competition study; assay type: biochemical; settings: saturating thymidine, phosphate 2–30 mM, compound at its IC50
Procedure: The synthesised compounds have been designed as TP inhibitors interacting with the thymidine fixation site. […] E. coli TP activity was determined in the presence of a saturating concentration of thymidine (equivalent to three times the value of the Michaelis-Menten constant [km][52]) and variable amounts of phosphate (2–30 mM). Tested compounds have been used at a concentration corresponding to the IC50.
For this study, the reaction mixture was composed of 160 µL of 10 mM Tris buffer (pH 7.4), 150 mM NaCl, 2 mM EDTA, 0.006 U of E. coli TP, different concentrations of KH2PO4 (2, 5, 10 and 30 mM). Compounds were tested at a concentration close to their IC50. The reaction was initiated by the addition of 20 µL of thymidine (3 mM and 10 mM solutions).

[5] = test system: epidermal carcinoma cells (A431); experiment: Cell proliferation assay (MTT), A431; assay type: cell-based; settings: Homo sapiens, 72 h, read-out: Growth inhibition, A431
Procedure: (§1) The inhibitory effect on cell proliferation was assessed using MTT assay[53] after 72 h of treatment through dose-response assays performed in the 100 µM to 0.1 µM concentration range. The results were expressed as percentages of growth inhibition.
(§2) Cell viability was determined on HUVEC and A431 cell lines using 3–(4,5-dimethylthiazol-2-yl)-2,5-diphenyltetrazolium bromide (MTT; Sigma-Aldrich) assay[53] after treatment with compounds 2d and 2p. A total of 5 × 10^3 cells/well (A431 cell line) or 10^4 cells/well (HUVEC cell line) were plated in a 96-well plate and treated, in duplicates, with compounds 2d and 2p at five concentrations (0.1 µM, 1 μM, 10 μM, 50 μM, 100 μM) for 72 h. Absorbance was read at 570 nm using Labsystem Multiskan MS microplate reader. The results were expressed as percentages of growth inhibition compared to positive control cell growth (100%).

[6] = molecular target: T1, E. coli TP; experiment: Enzyme inhibition kinetic study (Lineweaver-Burk); assay type: biochemical; settings: for Km values in the presence of inhibitor / Vmax values in the presence of inhibitor: increasing inhibitor concentration; for Type of TP inhibition: thymidine as substrate, Lineweaver-Burk plots
Procedure: The percentage of TP inhibition was determined for different concentrations of the inhibitors and thymidine.
Figure 7. […] Results are presented as means ± SD; SD denoted by error bars (experiments carried out in triplicate).
The TP inhibiting activity at differents concentrations of compound 2d (0, 15, 20, 30 µM) and 2p (0, 4, 6, 8 µM) was evaluated in the presence of different concentrations of thymidine ([…]) in KH2PO4 buffer (pH 7.4).

[7] = test system: human umbilical vein endothelial cells (HUVEC); experiment: Cell proliferation assay (MTT), HUVEC; assay type: cell-based; settings: 72 h, read-out: Growth inhibition, HUVEC
Procedure: as §1, §2

[8] = test system: hTP; design: method as in PMID 27783978; settings: cited from earlier work

| Structure (SMILES) | IC50 [1] [µM] | inhibition at 50 µM ([1]; 2.5% DMSO) [%] | Binding to the phosphate site [4] | solubility [3] [µM] | also measured |
| --- | --- | --- | --- | --- | --- |
| O=c1[nH]c(=O)c2cc3cc4c(cc3nc2[nH]1)OCO4 [Compound 2g] |  |  |  |  | inhibition at 15 µM ([1]; compound at 15 µM (maximum solubility), 2.5% DMSO): 0%; solubility [2]: 15 µM (≈ 3.86 µg/mL); Solubility (in words) [3]: sparingly soluble |
| O=C(NCc1cc(=O)[nH]c(=O)[nH]1)c1cc2c(=O)[nH]c(=O)[nH]c2nc1C(=O)NCc1cc(=O)[nH]c(=O)[nH]1 [Compound 30, N^6,N^7-Bis((2,6-dioxo-1,2,3,6-tetrahydropyrimidin-4-yl)methyl)-2,4-dioxo-1,2,3,4-tetrahydropyrido[2,3-d]pyrimidine-6,7-dicarboxamide] | 87 | 31 | did not bind to the phosphate site | > 50 | melting point: 259 to 261 °C (dec.) |
| COc1ccc2cc3c(=O)[nH]c(=O)[nH]c3nc2c1 [Compound 2d] | 28 | 89 |  | > 50 | inhibition at 50 µM ([5]; A-431, 50 µM): 57%; Km values in the presence of inhibitor [6]: increased; Vmax values in the presence of inhibitor [6]: did not change significantly; Type of TP inhibition [6]: competitive; inhibition at 100 µM [7]: 56% |
| COc1ccc2c(C)c3c(=O)[nH]c(=O)[nH]c3nc2c1 [Compound 2p] | 26 | 67 | did not bind to the phosphate site | > 50 | inhibition at 100 µM ([5]; A-431, 100 µM): 50%; Km values in the presence of inhibitor [6]: increased; Vmax values in the presence of inhibitor [6]: did not change significantly; Type of TP inhibition [6]: competitive; inhibition at 100 µM [7]: 31% |
| O=C1c2cc3cc4c(cc3nc2C(=O)N1Cc1[nH]c(=O)[nH]c(=O)c1Br)OCO4 [Compound 23b, 2-[(5-Bromo-2,6-dioxo-1,2,3,6-tetrahydropyrimidin-4-yl)methyl]-6,7-methylenedioxy-1H-pyrrolo[3,4-b]quinoline-1,3(2H)-dione] |  | 30 | did not bind to the phosphate site | 50 (≈ 22.3 µg/mL) | Solubility (in words) [3]: less soluble; melting point: 370 to 372 °C (dec.) |
| N=C1CCCN1Cc1[nH]c(=O)[nH]c(=O)c1Cl [TPI, 5-chloro-6-[1-(2-iminopyrrolidinyl)methyl]uracil hydrochloride] |  |  |  |  | IC50 [8]: 0.035 µM |
| O=C1c2cc3c(=O)[nH]c(=O)[nH]c3nc2C(=O)N1Cc1ccccc1 [Compound 28a] | 62 | 44 | did not bind to the phosphate site | > 50 |  |
